What was measured:
Assay in all cases: relative viability (nuclei count vs DMSO), 5 days (fraction); higher = more cells survive
[1] = compound: CC(C)C[C@H](NC(=O)[C@H](CCc1ccccc1)NC(=O)CN1CCOCC1)C(=O)N[C@@H](Cc1ccccc1)C(=O)N[C@@H](CC(C)C)C(=O)[C@@]1(C)CO1 [Carfilzomib] + COc1cccc2cc(-c3nc([C@H]4CC[C@H](C(=O)O)CC4)n4ncnc(N)c34)[nH]c12 [OSI-027] (partner 0.5 µM)
How it was run: (§1)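 The day after seeding in 1536-well plates, lung cancer cell lines were treated by pin tool with a single drug, or with a fixed anchor-drug dose together with five library-drug doses (not always all listed) in √10 steps. After 5 days, a combined fix-and-stain solution (final 0.05% Triton X-100, 1% formaldehyde, 1 ug/ml Hoechst) was added. Nuclei counted on 4× images gave relative viability as treated counts over vehicle counts, reported as the median of duplicate plates.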

[2] = compound: CC(C)C[C@H](NC(=O)[C@H](CCc1ccccc1)NC(=O)CN1CCOCC1)C(=O)N[C@@H](Cc1ccccc1)C(=O)N[C@@H](CC(C)C)C(=O)[C@@]1(C)CO1 [Carfilzomib] + C[C@]1(O)C[C@@H](c2nc(-c3ccc4ccc(-c5ccccc5)nc4c3)c3c(N)nccn32)C1 [Linsitinib] (partner 1 µM)
How it was run: as §1

[3] = compound: CC(C)C[C@H](NC(=O)[C@H](CCc1ccccc1)NC(=O)CN1CCOCC1)C(=O)N[C@@H](Cc1ccccc1)C(=O)N[C@@H](CC(C)C)C(=O)[C@@]1(C)CO1 [Carfilzomib] + O=C(c1cc(Cc2n[nH]c(=O)c3ccccc23)ccc1F)N1CCN(C(=O)C2CC2)CC1 [Olaparib] (partner 8 µM)
How it was run: as §1

[4] = compound: O=C(c1cc(Cc2n[nH]c(=O)c3ccccc23)ccc1F)N1CCN(C(=O)C2CC2)CC1 [Olaparib] + Cc1cc(Nc2cc(N3CCN(C)CC3)nc(Sc3ccc(NC(=O)C4CC4)cc3)n2)n[nH]1 [Tozasertib] (partner 0.1 µM)
How it was run: as §1

| Cell Line | relative viability ([1]; first compound 0.001 µM) | relative viability ([1]; first compound 0.003162 µM) | relative viability ([1]; first compound 0.01 µM) | relative viability ([1]; first compound 0.03162 µM) | relative viability ([1]; first compound 0.1 µM) | relative viability ([2]; first compound 0.001 µM) | relative viability ([2]; first compound 0.003162 µM) | relative viability ([2]; first compound 0.01 µM) | relative viability ([2]; first compound 0.03162 µM) | relative viability ([2]; first compound 0.1 µM) | relative viability ([3]; first compound 0.001 µM) | relative viability ([3]; first compound 0.003162 µM) | relative viability ([3]; first compound 0.01 µM) | relative viability ([3]; first compound 0.03162 µM) | relative viability ([3]; first compound 0.1 µM) | relative viability ([4]; first compound 0.08 µM) | relative viability ([4]; first compound 0.253 µM) | relative viability ([4]; first compound 2.53 µM) | relative viability ([4]; first compound 8 µM) |
| --- | --- | --- | --- | --- | --- | --- | --- | --- | --- | --- | --- | --- | --- | --- | --- | --- | --- | --- | --- |
| NCI-H2087 | 0.593 | 0.636 | 0.302 | 0.0521 | 0.0683 | 0.936 | 1.05 | 0.851 | 0.108 | 0.119 | 0.589 | 0.783 | 0.374 | 0.0505 | 0.0285 | 0.31 | 0.204 | 0.324 | 0.18 |
| NCI-H2126 | 0.721 | 0.707 | 0.76 | 0.726 | 0.331 | 0.703 | 0.793 | 0.695 | 0.764 | 0.58 | 0.897 | 1.01 | 0.957 | 0.746 | 0.464 | 0.915 | 0.794 | 0.869 | 0.83 |
| NCI-H2228 | 0.506 | 0.736 | 0.397 | 0.0668 | 0.0974 | 0.592 | 1.04 | 0.524 | 0.156 | 0.103 | 0.838 | 0.813 | 0.61 | 0.0953 | 0.124 | 0.324 | 0.207 | 0.201 | 0.136 |
| NCI-H2347 | 0.415 |  | 0.366 | 0.26 | 0.217 | 0.983 | 1.06 | 0.962 | 0.785 | 0.391 | 0.502 | 0.587 | 0.564 | 0.503 | 0.363 | 0.548 | 0.48 | 0.483 | 0.54 |
| NCI-H2405 |  | 0.667 | 0.651 | 0.507 | 0.305 |  | 1.19 | 1.01 | 0.389 | 0.16 | 0.836 | 0.946 | 0.915 | 0.699 | 0.211 | 0.807 | 0.722 | 0.66 | 0.654 |
| NCI-H3122 | 1.01 | 1.05 | 1.07 | 0.872 | 0.154 | 0.958 | 1.05 | 0.95 | 1 | 0.806 | 0.654 | 0.611 | 0.609 | 0.452 | 0.269 | 0.466 | 0.376 | 0.457 | 0.346 |
| PC-3 [JPC-3] | 0.801 | 0.775 | 0.813 | 0.755 | 0.352 | 1 | 0.881 | 1 | 0.86 | 0.466 | 1.17 | 1.16 | 1.18 | 0.652 | 0.301 | 0.913 | 0.855 | 0.946 | 0.843 |
